Results published in patent publication EP0023885A1, “Method for the introduction of an oxygen-containing functional group into ansamycines, compounds thus obtained, and pharmaceutical compositions containing them” (CIBA-GEIGY AG, priority 1979, dated 1981).

What was measured:
[1] = test system: grammpositive und grammnegative Kokken; assay: in vitro antibacterial activity against cocci; format: cell-based; settings: at the lowest tested concentration (0,01 mcg/ml)
Source text: (§1) Diese neuen Verbindungen zeichnen sich durch ihre wertvollen pharmakologischen Eigenschaften aus: so besitzen sie gemäss den Resultaten in vitro antibiotische, insbesondere antibakterielle Eigenschaften, wie z.B. einerseits gegen grammpositive und grammnegative Kokken, wie Staphylococcus aureus, Streptococcus pyogenes, Streptococcus pneumoniae, Neisseria meningitis, Neisseria gonorhoae (im getesteten Konzentrationsbereich 0,01 bis 8 mcg/ml), andererseits gegen grammnegative Stäbchenbakterien, wie Enterobacteriaceae, Pseudomonas aeruginosa, Haemophilus influenzae (im getesteten Konzentrationsbereich von 0,01 bis […]).

[2] = test system: grammnegative Stäbchenbakterien; assay: in vitro antibacterial activity against gram-negative rod bacteria; format: cell-based; settings: at the lowest tested concentration (0,01 mg/ml)
Source text: as §1

Row | Molecule | Hemmwirkung [1] | Hemmwirkung [2]
1 | 3-(2-Methoxyäthoxy)-rifamycin-S [3-(2-Methoxyäthyl)-rifamycin-S] | deutliche Hemmwirkung | deutliche Hemmwirkung
2 | 3-Benzoyloxyrifamycin-S [3-Benzoylrifamycin-S] | deutliche Hemmwirkung | deutliche Hemmwirkung
3 | COC1C=COC2(C)Oc3c(C)c(O)c4c(c3C2=O)C(=O)C(OC(C)=O)=C(NC(=O)C(C)=CC=CC(C)C(O)C(C)C(O)C(C)C(OC(C)=O)C1C)C4=O (stereo not shown) [3-Acetoxyrifamycin-S] | deutliche Hemmwirkung | deutliche Hemmwirkung
4 | COC1=C2NC(=O)C(C)=CC=CC(C)C(O)C(C)C(O)C(C)C(OC(C)=O)C(C)C(OC)C=COC3(C)Oc4c(C)c(O)c(c(c4C3=O)C1=O)C2=O (stereo not shown) [3-Methoxyrifamycin-S] | deutliche Hemmwirkung | deutliche Hemmwirkung
5 | COC1C=COC2(C)Oc3c(C)c(O)c4c(c3C2=O)C(=O)C(Oc2ccccc2)=C(NC(=O)C(C)=CC=CC(C)C(O)C(C)C(O)C(C)C(OC(C)=O)C1C)C4=O (stereo not shown) [3-Phenoxyrifamycin-S] | deutliche Hemmwirkung | deutliche Hemmwirkung
